Tested on: LPS-induced acute lung injury
Assay: LPS-induced acute lung injury
Format: in vivo, mice
Procedure: Since C57BL/6 mice are relatively resistant towards a single dose of intratracheal (IT) LPS instillation (Matute-Bello G et al., 2008 Am J Physiol Lung Cell Mol Physiol 295(3):L379-99), two IT injections of LPS (16 mg/kg; 50 μl) were administered, one on day 0 and the second on day 3. Briefly, 8 wk CFZ-treated and control mice were anesthetized using intraperitoneal injections of xylazine […]. Under direct visualization of the vocal cords using an otoscope, either LPS or an equivalent volume of PBS in a 1 mL syringe attached to an oral gavage needle (22 G) was instilled into the lungs via the oral route. The mouse was then placed in a temperature-controlled cage (37° C.) for recovery from anesthesia.
The general health status of each PBS/LPS-instilled mice was monitored by measuring body weight and rectal temperature (Microprobe Thermometer, Physitemp Instruments, Clifton, N.J.), and cardiopulmonary function (arterial oxygen saturation, respiratory rate, heart rate and pulse distention) was monitored using MouseOx with a collar clip sensor (Starr Life Sciences Corp, Oakmont, Pa.) as previously described (Lax S et al., (2014) BMJ open Respir Res 1(1):e000014; Nayak S, et al. (2014) PLoS One 9(6):e98336). In brief, one day before IT instillations (D-1) the hair around the neck of each mouse was removed using Nair (Church & Dwight, Princeton, N.J.) to enable data acquisition using the collar clip sensor. The next day (D 0), immediately prior to the first LPS/PBS dose, and every 24 h afterwards until day 6 (D 6), the body weight, temperature and MouseOx readings were recorded. MouseOx data was acquired by very brief anesthesia of the mouse using 5% isoflurane to facilitate the placement of the collar clip sensor. The mouse was then placed in an enclosed chamber with ambient light and allowed to acclimatize for 5 min at which point the animals had recovered normal activities and physiological readings. Arterial oxygen saturation, breath rate, heart rate and pulse distention measurements were then simultaneously recorded for 6 min (15 readings/sec), and any errors caused by motion during recording were excluded, after which the mean value of each parameter was used for further data analysis.
To objectively assess LPS-induced mortality, a multi-parametric scoring system that relied on the daily changes in vital signs associated with inflammatory injury progression and mortality which included arterial oxygen saturation was used (Lax et al., 2014, supra), body weight and temperature (Toth L A (2000) ILAR J 41(2):72-79; Nemzek et al., (2004) Humane endpoints in shock research. Shock 21(1):17-25). First, the percent change from baseline (D 0) in arterial oxygen saturation, body weight, and temperature in each mouse caused by IT instillation of PBS/LPS were measured and calculated daily until day 6 post-instillation. […] These mice were immediately euthanized with ketamine/xylazine and the bronchoalveolar lavage (BAL) and lungs were harvested for cellular and biochemical analysis (see below).
PBS/LPS-instilled CFZ- or control mice were euthanized by exsanguination while deeply anesthetized with an intraperitoneal injection of ketamine/xylazine. The trachea was surgically exposed and cannulated with an 18 G needle and the lungs were lavaged by instilling 1 ml DPBS (Life Technologies) containing 0.5 mM EDTA (Sigma). The retrieved BAL was then centrifuged (10 min at 400×g, 4° C.), and the supernatant was frozen (−80° C.), while the cell pellets were resuspended in 1 ml RPMI 1640 media (Life Technologies). To count total cells, the cells were stained with Trypan blue and counted using a hemocytometer. To distinguish cell types, an aliquot of the cells were dried on glass slides and stained with Diff Stain kit (IMEB Inc, San Marcos, Calif.) according to the manufacturer's instructions. […]

SMILES: CC(C)/N=c1\cc2n(-c3ccc(Cl)cc3)c3ccccc3nc-2cc1Nc1ccc(Cl)cc1 [CFZ, 3-(p-chloroanilino)-10-(p-chlorophenyl)-2, 10-dihydro-2-isopropyliminophenazine]
- survival rate (8 wk CFZ-treated, two IT LPS 16 mg/kg): 92%
- TNFα and IL-1RA expression (after LPS): reduced TNFα and IL-1RA expression after LPS
- arterial oxygen levels vs control mice (after LPS): significantly higher arterial oxygen levels at day 5 and day 6
- cell count in bronchioalveolar lavage (BAL) (after LPS): significantly less cell count in bronchioalveolar lavage
- number of mice losing more than 15% weight (after LPS): 1
- lung injury vs control mice (after LPS instillation): notably less lung injury
- body temperature drop vs control mice (after second LPS injection (day 4)): more resistant to temperature drop after the second injection
- heart rate, breathing rate and pulse distention vs control mice (after the second LPS injection): less reduction in heart rate, breathing rate and pulse distention

Source: US20160220710A1, “COMPOSITIONS AND METHODS FOR DELIVERING PHARMACEUTICAL AGENTS” (THE REGENTS OF THE UNIVERSITY OF MICHIGAN, priority 2015, published 2016)
